The text below walks through data of ChEMBL document CHEMBL1137102, “Synthesis and evaluation of 2-amino-8-alkoxy quinolines as MCHr1 antagonists. Part 1” (Bioorg Med Chem Lett, 2004).

The target in data set [1] is T1, Melanin-concentrating hormone receptor 1 (Homo sapiens, UniProt Q99705). The data set can be described thus: Concentration required to inhibit binding of [125I]MCH radioligand to human melanin-concentrating hormone receptor 1 in IMR-32 I3.4.2 cell membranes.
Data set [2] has as its target T1, Melanin-concentrating hormone receptor 1. The data set can be described thus: Concentration required to inhibit 50% of melanin-concentrating hormone induced [Ca2+] flux in IMR-32 cells measured by using a fluorometric imaging plate reader. It is filed as functional, cell-based.
Data set [3] in a line: Maximum concentration in brain was determined at the peroral dose of 10 mg/kg in diet-induced obese (DIO) mice; unit may be (ng/mL or ng/g). The format is ADME, organism-based. Also noted: dose 10 mg/kg, route oral. The note with it: mouse, po.
Data set [4] in a line: Area under curve in brain was determined at the peroral dose of 10 mg/kg in diet-induced obese (DIO) mice; unit may be (ng.h/mL or ng. h/g). It is filed as ADME, organism-based. Also noted: dose 10 mg/kg, route oral. As to conditions: mouse, in vivo, po.
The nature of data set [5]: Area under curve in plasma was determined at the peroral dose of 10 mg/kg in diet-induced obese (DIO) mice; unit may be (ng.h/mL or ng. h/g). The note with it: mouse, in vivo, po. Also noted: dose 10 mg/kg, route oral. It is filed as ADME, organism-based.
The nature of data set [6]: Maximum concentration in plasma was determined at the peroral dose of 10 mg/kg in diet-induced obese (DIO) mice; unit may be (ng/mL or ng/g). More on the design: dose 10 mg/kg, route oral. It is filed as ADME, organism-based. The note with it: mouse, po.
A short description of data set [7]: Half life in plasma was determined at the peroral dose of 10 mg/kg in diet-induced obese (DIO) mice. As to conditions: mouse, po. Also noted: dose 10 mg/kg, route oral. It is filed as ADME, organism-based.
Data set [8] in a line: Half life in brain was determined at the peroral dose of 10 mg/kg in diet-induced obese (DIO) mice. It is filed as ADME, organism-based. As to conditions: mouse, po. Also noted: dose 10 mg/kg, route oral.

T1 sequence (Q99705 whole entry): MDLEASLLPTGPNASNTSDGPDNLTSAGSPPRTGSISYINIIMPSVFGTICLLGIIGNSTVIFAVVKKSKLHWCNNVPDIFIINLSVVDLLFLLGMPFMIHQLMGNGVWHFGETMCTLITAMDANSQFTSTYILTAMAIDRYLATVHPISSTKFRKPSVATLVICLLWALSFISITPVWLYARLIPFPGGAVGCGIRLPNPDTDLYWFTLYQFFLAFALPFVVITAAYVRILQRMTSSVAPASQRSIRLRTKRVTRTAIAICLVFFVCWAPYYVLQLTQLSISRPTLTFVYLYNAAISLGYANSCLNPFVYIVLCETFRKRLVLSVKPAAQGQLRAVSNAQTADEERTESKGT

Usually IC50 stands for the concentration that gives 50% inhibition. The molecule `Nc1ccc2cccc(O)c2n1` showed an IC50 in data set [1] of more than 2 µM.

On to `CC(C)COc1cccc2ccc(N)nc12`, for which the IC50 in data set [1] is more than 2 µM.

`CC(CC(C)(C)C)Oc1cccc2ccc(N3CCCCC3)nc12` (stereo not drawn): the IC50 in data set [1] was more than 2 µM; in data set [2], more than 10 µM.

`COCCOCCOc1cccc2ccc(N)nc12` returned an IC50 in data set [1] of more than 2 µM.

As to `CC1CCC(Oc2cccc3ccc(N)nc23)C1` (stereo not drawn), the IC50 in data set [1] was determined as 0.823 µM.

In data set [1], `CC1CCCC(Oc2cccc3ccc(N)nc23)C1` (stereo not drawn) yielded an IC50 of 0.64 µM.

In data set [1], `CCOCC(C)Oc1cccc2ccc(N)nc12` (stereo not drawn) showed an IC50 of 1.07 µM.

Molecule `CSCCOc1cccc2ccc(N)nc12` gave an IC50 in data set [1] of more than 2 µM.

With `CC(CC(C)(C)C)Oc1cccc2ccc(NCC3CC3)nc12` (stereo not drawn), the IC50 in data set [1] is more than 2 µM; in data set [2] it was more than 10 µM.

Turning to `Nc1ccc2cccc(OCCC3CCCCC3)c2n1`, the IC50 in data set [1] was found to be 0.808 µM.

In the case of `Nc1ccc2cccc(OC3CCCCCC3)c2n1`, the IC50 in data set [1] was 0.137 µM; in data set [2], 3.48 µM.

Regarding `CNc1ccc2cccc(OC(C)CC(C)(C)C)c2n1` (stereo not drawn), the results for the IC50 in data set [1] and in data set [2] were 0.31 µM and 6.09 µM, respectively.

In the case of `CC(C)CCOc1cccc2ccc(N)nc12`, the IC50 in data set [1] stood at 0.614 µM.

Turning to `CC(CC(C)(C)C)Oc1cccc2ccc(NCc3ccc(-c4ccccc4Cl)o3)nc12` (stereo not drawn), the IC50 stood at 0.06 µM in data set [1] and 0.53 µM in data set [2].

The molecule `CC1CCC(Oc2cccc3ccc(N)nc23)CC1` (stereo not drawn) showed an IC50 in data set [1] of 0.349 µM.

On to `CC(CC(C)(C)C)Oc1cccc2ccc(N(C)C)nc12` (stereo not drawn), for which the values for the IC50 in data set [1] and in data set [2] were more than 2 µM and more than 10 µM, respectively.

Consider `Nc1ccc2cccc(OCC3CCC3)c2n1`, for which the IC50 in data set [1] came to 0.432 µM.

In data set [1], `CCOCCOc1cccc2ccc(N)nc12` had an IC50 of more than 2 µM.

In data set [1], `CC(C)C(C)Oc1cccc2ccc(N)nc12` (stereo not drawn) gave an IC50 of 0.199 µM.

Molecule `CCC(CC)Oc1cccc2ccc(N)nc12` showed an IC50 in data set [1] of 0.326 µM.

`COCCOc1cccc2ccc(N)nc12`: the IC50 in data set [1] was more than 2 µM.

For the molecule `Nc1ccc2cccc(OC3CCCCC3)c2n1`, the IC50 in data set [1] worked out at 0.361 µM.

On to `CCCCCOc1cccc2ccc(N)nc12`, for which the IC50 in data set [1] stood at 0.58 µM.

`CC1CC1COc1cccc2ccc(N)nc12` (stereo not drawn) gave an IC50 in data set [1] of 1.64 µM.

Regarding `CCCCOc1cccc2ccc(N)nc12`, the IC50 in data set [1] stood at 0.789 µM.

As for `Nc1ccc2cccc(OCC3CC4CCC3C4)c2n1` (stereo not drawn), the IC50 in data set [1] is 0.137 µM; in data set [2], 1.73 µM.

For `Nc1ccc2cccc(OCC3CCCC3)c2n1`, the IC50 was determined as 0.053 µM in data set [1] and 2.29 µM in data set [2].

In the case of `Nc1ccc2cccc(OCC3CCCO3)c2n1` (stereo not drawn), the IC50 in data set [1] is more than 2 µM.

Turning to `CCC(C)Oc1cccc2ccc(N)nc12` (stereo not drawn), the IC50 in data set [1] came to 0.174 µM; in data set [2] it was 5.31 µM.

Take `Nc1ccc2cccc(OCCC3CC3)c2n1`: in data set [1], the IC50 was determined as 0.492 µM.

In data set [1], `Nc1ccc2cccc(OCCC(F)(F)F)c2n1` displayed an IC50 of 0.722 µM.

In data set [1], `CCCCCCOc1cccc2ccc(N)nc12` displayed an IC50 of 0.818 µM.

As for `CCCC(C)Oc1cccc2ccc(N)nc12` (stereo not drawn), the IC50 in data set [1] worked out at 0.105 µM; in data set [2] it was 0.86 µM.

`CC(COC(C)(C)C)Oc1cccc2ccc(N)nc12` (stereo not drawn) yielded an IC50 in data set [1] of 0.306 µM.

For `COC(C)(C)CCOc1cccc2ccc(N)nc12`, the IC50 in data set [1] was 0.132 µM; in data set [2] it was 4.67 µM.

In turn, `Nc1ccc2cccc(OC3CCC3)c2n1` returned a 50% inhibitory concentration (IC50) in data set [1] of more than 2 µM.

Consider `CC1CCCCC1Oc1cccc2ccc(N)nc12` (stereo not drawn), for which the results for the IC50 in data set [1] and in data set [2] were 0.032 µM and 1.33 µM, respectively.

In data set [1], `CCC(C)COc1cccc2ccc(N)nc12` (stereo not drawn) registered a 50% inhibitory concentration (IC50) of 0.036 µM.

Consider `COCC(C)Oc1cccc2ccc(N)nc12` (stereo not drawn), for which the IC50 in data set [1] was 0.606 µM.

In turn, `Nc1ccc2cccc(OC3CCCC3)c2n1` came in with an IC50 in data set [1] of more than 2 µM.

As to `CC(C)=CCOc1cccc2ccc(N)nc12`, the IC50 in data set [1] was more than 2 µM.

Regarding `CC(C)OCCOc1cccc2ccc(N)nc12`, the IC50 in data set [1] was more than 2 µM.

For `Nc1ccc2cccc(OCC3CCOC3)c2n1` (stereo not drawn), the figures for the IC50 in data set [1] and in data set [2] were 0.115 µM and 6.24 µM, respectively.

Consider `CC(C)(C)CCOc1cccc2ccc(N)nc12`, for which the IC50 in data set [1] came to 0.201 µM.

Regarding `Nc1ccc2cccc(OCC3CCCCC3)c2n1`, the IC50 came to 0.09 µM in data set [1] and 1.68 µM in data set [2].

For `CC(CC(C)(C)C)Oc1cccc2cccnc12` (stereo not drawn), the IC50 is more than 2 µM in data set [1] and more than 10 µM in data set [2].

Turning to `CC(C)Oc1cccc2ccc(N)nc12`, the IC50 in data set [1] was 0.437 µM.

For the molecule `CCC(CC)C(C)Oc1cccc2ccc(N)nc12` (stereo not drawn), the IC50 in data set [1] was determined as 0.191 µM; in data set [2] it was 1.3 µM.

Take `Nc1ccc2cccc(OCC3CC3)c2n1`: the IC50 in data set [1] was more than 2 µM.

`CCC#CCOc1cccc2ccc(N)nc12`: the IC50 in data set [1] was more than 2 µM.

Turning to `CC#CCCOc1cccc2ccc(N)nc12`, the IC50 in data set [1] is more than 2 µM.

In data set [1], `CCCOc1cccc2ccc(N)nc12` came in with an IC50 of 1.1 µM.

As to `CC(CC(C)(C)C)Oc1cccc2ccc(N3CCCC3)nc12` (stereo not drawn), the results for the IC50 in data set [1] and in data set [2] were more than 2 µM and more than 10 µM, respectively.

`COc1cccc2ccc(N)nc12`: the IC50 in data set [1] amounted to 1.59 µM.

For orientation: Cmax means the maximum level reached in the sampled fluid or tissue. As a reminder, the AUC is concentration integrated over time. Usually half-life stands for how long it takes for the measured level to halve. The low end stands for rapid decline, the high end for slow decline. In the case of `CC(CC(C)(C)C)Oc1cccc2ccc(N)nc12` (single isomer, unassigned), the IC50 was 0.02 µM in data set [1] and 0.09 µM in data set [2]. In addition, the Cmax in data set [3] came out at 595 ng/mL; in data set [6], 127 ng/mL. The AUC is 1030 ng·h/mL in data set [4] and 247 ng·h/mL in data set [5]. In addition, the half-life in data set [7] is 1.9 h; in data set [8], 2.3 h.

In the case of `CC(CC(C)(C)C)Oc1cccc2ccc(N)nc12` (single isomer, unassigned; (+)), the IC50 stood at 0.55 µM in data set [1] and 4.51 µM in data set [2].

On to `CC(CC(C)(C)C)Oc1cccc2ccc(N)nc12` (stereo in doubt; 19), for which the IC50 in data set [1] was 0.041 µM; in data set [2] it was 0.211 µM.
